Measured values as given in PMC10296347, “Identification of the Stapled α-Helical Peptide ATSP-7041 as a Substrate and Strong Inhibitor of OATP1B1 In Vitro” (Biomolecules, 2023).

Molecular target: CYP2C9 (Homo sapiens, UniProt P11712)
Conditions: microsomes
Method: Text S1. Supplementary Materials and Methods.
Male Human Liver Pooled S9; Tokyo, Japan). Midazolam, midazolam-d4, 1ʹ-hydroxymidazolam, testosterone, testosterone-d3, and 6β-hydroxytestosterone, were purchased […]
(Fluorometric)) were purchased from BioVision. Inc. (Milpitas, CA, USA). Reversed vesicles […]
were commercially available.
2. Evaluation of ATSP-7041 as a substrate of CYPs
S9, with or without the NADPH generation system. S9 (A), at a 2 mg/mL protein concentration […]
The reaction solution (400 μL) was then
3. Evaluation of ATSP-7041 as an inhibitor of CYPs […]
the manufacturer’s protocol. […]
the indicated periods of times. The substrates, positive control inhibitors, and fluorescence […]
Table S1. Parameters used in LC/MS analysis.
Table S2. Substrates and positive control inhibitors used for CYPs inhibition screening.
Residual activity (% of control, i.e. without test chemical for inhibition) of human CYPs with ATSP-7041 (10 μM) in CYPs inhibition screening. The activity of CYPs were calculated as background-corrected reaction rates using the linear phase of reaction progress […]
curve. Data are presented as the mean ± S.D. (n = 3). *
Analyte Transition Polarity Ion source voltage Source temp. Collision energy LC gradient program […]
5% B (0-1 min) - 45% B (3 min)
CYP isoform Substrate Concentration Positive control inhibitor Concentration Detection Kit No. […]

Chain of CYP2C9 (P11712 whole entry): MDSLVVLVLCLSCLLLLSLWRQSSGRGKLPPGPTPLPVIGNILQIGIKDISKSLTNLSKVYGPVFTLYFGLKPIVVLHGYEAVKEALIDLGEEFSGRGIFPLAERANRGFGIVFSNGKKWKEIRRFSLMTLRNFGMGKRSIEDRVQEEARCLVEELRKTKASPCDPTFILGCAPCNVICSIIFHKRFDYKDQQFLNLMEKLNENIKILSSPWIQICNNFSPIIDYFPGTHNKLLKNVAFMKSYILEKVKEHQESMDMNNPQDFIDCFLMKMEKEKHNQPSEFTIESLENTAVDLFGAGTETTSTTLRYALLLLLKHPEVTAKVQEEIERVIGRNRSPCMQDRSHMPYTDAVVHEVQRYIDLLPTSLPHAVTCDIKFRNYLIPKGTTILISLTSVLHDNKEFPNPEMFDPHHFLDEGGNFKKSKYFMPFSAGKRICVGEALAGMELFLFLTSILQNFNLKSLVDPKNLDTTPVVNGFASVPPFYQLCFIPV

Nc1ccc(S(=O)(=O)Nc2ccnn2-c2ccccc2)cc1 [Sulfaphenazole]
Residual activity (% of control) CYP2C9, positive control inhibitor: 8.59 ± 2.06 % of control
